Measurements as given in patent US11851440B2, “Modulators of eukaryotic initiation factor 2B, compositions and methods” (Denali Therapeutics Inc., priority 2017, dated 2023).
pIC50: −log10 of the molar value.

System: ISR pathway (ATF4 translation)
Assay: ATF4 Nano Luciferase reporter integrated stress response (ISR) assay in H4 ATF4-NLuc cells
Details: Homo sapiens, read-out: Activity (IC50), H4 ATF4-NLuc (clone 17) cells; compound 30 minutes, then 50 um sodium arsenite for 6 hours; luminescence readout

`O=C(COc1ccc(Cl)cc1)NC12CC(c3nnc([C@H]4C[C@@H](COC(F)(F)F)C4)o3)(C1)C2` [Example 86, 2-(4-chlorophenoxy)-N-[3-[5-[3-cis-(trifluoromethoxymethyl)cyclobutyl]-1,3,4-oxadiazol-2-yl]-1-bicyclo[1.1.1]pentanyl]acetamide] and `O=C(COc1ccc(C2CC2)cc1)NC12CC(c3nnc([C@H]4C[C@@H](OC(F)(F)F)C4)o3)(C1)C2` [Example 120, 2-(4-cyclopropylphenoxy)-N-[3-[5-[3-cis-(trifluoromethoxy)cyclobutyl]-1,3,4-oxadiazol-2-yl]-1-bicyclo[1.1.1]pentanyl]acetamide] cannot be ordered by pIC50: over 6.00 for the first, over 6.00 for the second.

Compared with `O=C(NC12CC(c3nnc([C@H]4C[C@@H](OC(F)(F)F)C4)o3)(C1)C2)OC[C@H]1C[C@@H](OC(F)(F)F)C1` [Example 88, [3-cis-(trifluoromethoxy)cyclobutyl]methyl N-[3-[5-[3-cis-(trifluoromethoxy)cyclobutyl]-1,3,4-oxadiazol-2-yl]-1-bicyclo[1.1.1]pentanyl]carbamate], `O=C(COC[C@H]1C[C@@H](OC(F)(F)F)C1)NC12CC(c3nnc([C@H]4C[C@@H](OC(F)(F)F)C4)o3)(C1)C2` [Example 117, 2-[[3-cis-(trifluoromethoxy)cyclobutyl]methoxy]-N-[3-[5-[3-cis-(trifluoromethoxy)cyclobutyl]-1,3,4-oxadiazol-2-yl]-1-bicyclo[1.1.1]pentanyl]acetamide] is lower in pIC50: over 6.00 for the first, 5.00 to 6.00 for the second. The first is the more potent here.

`O=C(CO[C@H]1C[C@@H](COC(F)(F)F)C1)NC12CC(c3nnc([C@H]4C[C@@H](OC(F)(F)F)C4)o3)(C1)C2` [Example 89, N-[3-[5-[3-cis-(trifluoromethoxy)cyclobutyl]-1,3,4-oxadiazol-2-yl]-1-bicyclo[1.1.1]pentanyl]-2-[3-cis-(trifluoromethoxymethyl)cyclobutoxy]acetamide] and `O=C(CO[C@H]1C[C@@H](OC(F)(F)F)C1)NC12CC(c3nnc([C@H]4C[C@@H](COC(F)(F)F)C4)o3)(C1)C2` [Example 106, 2-[3-cis-(trifluoromethoxy)cyclobutoxy]-N-[3-[5-[3-cis-(trifluoromethoxymethyl)cyclobutyl]-1,3,4-oxadiazol-2-yl]-1-bicyclo[1.1.1]pentanyl]acetamide] cannot be ordered by pIC50: over 6.00 for the first, over 6.00 for the second.

`O=C(COc1ccc(Cl)c(F)c1)NC12CC(c3nnc(C4(F)CN(CC(F)(F)F)C4)o3)(C1)C2` [Example 93, 2-(4-chloro-3-fluoro-phenoxy)-N-[3-[5-[3-fluoro-1-(2,2,2-trifluoroethyl)azetidin-3-yl]-1,3,4-oxadiazol-2-yl]-1-bicyclo[1.1.1]pentanyl]acetamide] and `O=C(COc1cccc(F)c1)NC12CC(c3nnc([C@H]4C[C@@H](OC(F)(F)F)C4)o3)(C1)C2` [Example 105, 2-(3-fluorophenoxy)-N-[3-[5-[3-cis-(trifluoromethoxy)cyclobutyl]-1,3,4-oxadiazol-2-yl]-1-bicyclo[1.1.1]pentanyl]acetamide] cannot be ordered by pIC50: over 6.00 for the first, over 6.00 for the second.

Compared with `O=C(COCCOC(F)(F)F)NC12CC(c3nnc([C@H]4C[C@@H](OC(F)(F)F)C4)o3)(C1)C2` [Example 94, N-[3-[5-[3-cis-(trifluoromethoxy)cyclobutyl]-1,3,4-oxadiazol-2-yl]-1-bicyclo[1.1.1]pentanyl]-2-[2-(trifluoromethoxy)ethoxy]acetamide], `O=C(CO[C@H]1C[C@@H](OC(F)(F)F)C1)NC12CC(c3nnc(C4CC(COC(F)(F)F)C4)o3)(C1)C2` (stereo partly drawn) [Example 107, 2-[3-cis-(trifluoromethoxy)cyclobutoxy]-N-[3-[5-[3-trans-(trifluoromethoxymethyl)cyclobutyl]-1,3,4-oxadiazol-2-yl]-1-bicyclo[1.1.1]pentanyl]acetamide] is higher in pIC50: 5.00 to 6.00 for the first, over 6.00 for the second. The second is the more potent here.

First: O=C(CO[C@H]1C[C@H](OC(F)(F)F)C1)NC12CC(c3nnc([C@H]4C[C@@H](OC(F)(F)F)C4)o3)(C1)C2 [Example 95, 2-[3-trans-(trifluoromethoxy)cyclobutoxy]-N-[3-[5-[3-cis-(trifluoromethoxy)cyclobutyl]-1,3,4-oxadiazol-2-yl]-1-bicyclo[1.1.1]pentanyl]acetamide]
Second: O=C(CO[C@@H]1CC[C@H](OC(F)(F)F)C1)NC12CC(c3nnc([C@H]4C[C@@H](OC(F)(F)F)C4)o3)(C1)C2 [Example 114, N-[3-[5-[3-cis-(trifluoromethoxy)cyclobutyl]-1,3,4-oxadiazol-2-yl]-1-bicyclo[1.1.1]pentanyl]-2-[3-cis-(trifluoromethoxy)cyclopentoxy]acetamide]
The pIC50 of the first is higher: over 6.00 for the first, 5.00 to 6.00 for the second. The first is the more potent here.

First: Cc1nc(C2CC(OC(F)(F)F)C2)cn1C12CC(NC(=O)CO[C@H]3C[C@@H](OC(F)(F)F)C3)(C1)C2 (stereo partly drawn) [Example 96, N-[3-[2-methyl-4-[3-(trifluoromethoxy)cyclobutyl]imidazol-1-yl]-1-bicyclo[1.1.1]pentanyl]-2-[3-cis-(trifluoromethoxy)cyclobutoxy]acetamide]
Second: O=C(COC1CN(CC(F)(F)F)C1)NC12CC(c3nnc([C@H]4C[C@@H](OC(F)(F)F)C4)o3)(C1)C2 [Example 116, 2-[1-(2,2,2-trifluoroethyl)azetidin-3-yl]oxy-N-[3-[5-[3-cis-(trifluoromethoxy)cyclobutyl]-1,3,4-oxadiazol-2-yl]-1-bicyclo[1.1.1]pentanyl]acetamide]
The pIC50 of the first is higher: over 6.00 for the first, 5.00 to 6.00 for the second. The first is the more potent here.

First: O=C(COCc1cncc(Cl)c1)NC12CC(c3nnc([C@H]4C[C@@H](OC(F)(F)F)C4)o3)(C1)C2 [Example 97, 2-[(5-chloro-3-pyridyl)methoxy]-N-[3-[5-[3-cis-(trifluoromethoxy)cyclobutyl]-1,3,4-oxadiazol-2-yl]-1-bicyclo[1.1.1]pentanyl]acetamide]
Second: O=C(NC12CC(c3nnc([C@H]4C[C@@H](OC(F)(F)F)C4)o3)(C1)C2)OCc1ccc(Cl)cc1 [Example 110, (4-chlorophenyl)methyl-N-[3-[5-[3-cis-(trifluoromethoxy)cyclobutyl]-1,3,4-oxadiazol-2-yl]-1-bicyclo[1.1.1]pentanyl]carbamate]
The pIC50 of the first is lower: 5.00 to 6.00 for the first, over 6.00 for the second.

`O=C(NC12CC(c3nnc([C@H]4C[C@@H](OC(F)(F)F)C4)o3)(C1)C2)c1cc(C2CC2)on1` [Example 98, 5-cyclopropyl-N-[3-[5-[3-cis-(trifluoromethoxy)cyclobutyl]-1,3,4-oxadiazol-2-yl]-1-bicyclo[1.1.1]pentanyl]isoxazole-3-carboxamide] and `O=C(NC12CC(c3nnc([C@H]4C[C@@H](OC(F)(F)F)C4)o3)(C1)C2)c1cc2cccn2cn1` [Example 101, N-[3-[5-[3-cis-(trifluoromethoxy)cyclobutyl]-1,3,4-oxadiazol-2-yl]-1-bicyclo[1.1.1]pentanyl]pyrrolo[1,2-c]pyrimidine-3-carboxamide] fall in the same range of pIC50: 5.00 to 6.00 for the first, 5.00 to 6.00 for the second.

Compared with `O=C(NC12CC(c3nnc([C@H]4C[C@@H](OC(F)(F)F)C4)o3)(C1)C2)C1=NO[C@@H](c2ccccc2)C1` [Example 99, cis-(R)-5-phenyl-N-(3-(5-(3-(trifluoromethoxy)cyclobutyl)-1,3,4-oxadiazol-2-yl)bicyclo[1.1.1]pentan-1-yl)-4,5-dihydroisoxazole-3-carboxamide], `O=C(NC12CC(c3nnc([C@H]4C[C@@H](OC(F)(F)F)C4)o3)(C1)C2)C1=NO[C@H](c2ccccc2)C1` [Example 100, cis-(S)-5-phenyl-N-(3-(5-(3-(trifluoromethoxy)cyclobutyl)-1,3,4-oxadiazol-2-yl)bicyclo[1.1.1]pentan-1-yl)-4,5-dihydroisoxazole-3-carboxamide] is higher in pIC50: under 5.00 for the first, over 6.00 for the second.

`O=C(NC12CC(c3nnc([C@H]4C[C@@H](OC(F)(F)F)C4)o3)(C1)C2)c1cn2cc(Cl)ccc2n1` [Example 103, 6-chloro-N-[3-[5-[3-cis-(trifluoromethoxy)cyclobutyl]-1,3,4-oxadiazol-2-yl]-1-bicyclo[1.1.1]pentanyl]imidazo[1,2-a]pyridine-2-carboxamide] and `O=C(NC12CC(c3nnc([C@H]4C[C@@H](OC(F)(F)F)C4)o3)(C1)C2)c1cn2ccc(Cl)cc2n1` [Example 104, 7-chloro-N-[3-[5-[3-cis-(trifluoromethoxy)cyclobutyl]-1,3,4-oxadiazol-2-yl]-1-bicyclo[1.1.1]pentanyl]imidazo[1,2-a]pyridine-2-carboxamide] cannot be ordered by pIC50: over 6.00 for the first, over 6.00 for the second.

First: O=C(NC12CC(c3nnc([C@H]4C[C@H](OC(F)(F)F)C4)o3)(C1)C2)OCc1ccc(Cl)cc1 [Example 111, (4-chlorophenyl)methyl-N-[3-[5-[3-trans-(trifluoromethoxy)cyclobutyl]-1,3,4-oxadiazol-2-yl]-1-bicyclo[1.1.1]pentanyl]carbamate]
Second: O=C(COC1CC2(CC2)C1)NC12CC(c3nnc([C@H]4C[C@@H](OC(F)(F)F)C4)o3)(C1)C2 [Example 115, 2-spiro[2.3]hexan-5-yloxy-N-[3-[5-[3-cis-(trifluoromethoxy)cyclobutyl]-1,3,4-oxadiazol-2-yl]-1-bicyclo[1.1.1]pentanyl]acetamide]
The pIC50 of the first is higher: over 6.00 for the first, 5.00 to 6.00 for the second. The first is the more potent here.

`O=C(COC1CC(OC(F)(F)F)C1)NC12CC(c3nnc(-c4cnn(CC(F)(F)F)c4)o3)(C1)C2` (stereo not drawn) [Example 118, N-[3-[5-[1-(2,2,2-trifluoroethyl)pyrazol-4-yl]-1,3,4-oxadiazol-2-yl]-1-bicyclo[1.1.1]pentanyl]-2-[3-cis-(trifluoromethoxy)cyclobutoxy]acetamide] and `O=C(CO[C@H]1C[C@@H](OC(F)(F)F)C1)NC12CC(c3nnc(-c4ccn(CC(F)(F)F)n4)o3)(C1)C2` [Example 119, N-[3-[5-[1-(2,2,2-trifluoroethyl)pyrazol-3-yl]-1,3,4-oxadiazol-2-yl]-1-bicyclo[1.1.1]pentanyl]-2-[3-cis-(trifluoromethoxy)cyclobutoxy]acetamide] fall in the same range of pIC50: 5.00 to 6.00 for the first, 5.00 to 6.00 for the second.

Same assay, conditions: read-out: Activity (IC50); H4 ATF4-NLuc (clone 17) cells; compound 30 minutes, then 50 um sodium arsenite for 6 hours; luminescence readout

Work on `O=C(COc1ccc(Cl)cc1)NC12CC(c3nnc([C@H]4C[C@H](COC(F)(F)F)C4)o3)(C1)C2` [Example 87, 2-(4-chlorophenoxy)-N-[3-[5-[3-trans-(trifluoromethoxymethyl)cyclobutyl]-1,3,4-oxadiazol-2-yl]-1-bicyclo[1.1.1]pentanyl]acetamide] yielded a pIC50 of over 6.00.
